Consider three compounds from article PMC4182434, “Characterization of Niphatenones that Inhibit Androgen Receptor N-Terminal Domain” (PLoS ONE, 2014).

Test [1] concerns the target T1, full-length AR (endogenous, LNCaP) (Homo sapiens, UniProt P10275, T878A).
T1 construct: endogenous full-length AR of LNCaP cells
T1 sequence (P10275 1-920 T878A): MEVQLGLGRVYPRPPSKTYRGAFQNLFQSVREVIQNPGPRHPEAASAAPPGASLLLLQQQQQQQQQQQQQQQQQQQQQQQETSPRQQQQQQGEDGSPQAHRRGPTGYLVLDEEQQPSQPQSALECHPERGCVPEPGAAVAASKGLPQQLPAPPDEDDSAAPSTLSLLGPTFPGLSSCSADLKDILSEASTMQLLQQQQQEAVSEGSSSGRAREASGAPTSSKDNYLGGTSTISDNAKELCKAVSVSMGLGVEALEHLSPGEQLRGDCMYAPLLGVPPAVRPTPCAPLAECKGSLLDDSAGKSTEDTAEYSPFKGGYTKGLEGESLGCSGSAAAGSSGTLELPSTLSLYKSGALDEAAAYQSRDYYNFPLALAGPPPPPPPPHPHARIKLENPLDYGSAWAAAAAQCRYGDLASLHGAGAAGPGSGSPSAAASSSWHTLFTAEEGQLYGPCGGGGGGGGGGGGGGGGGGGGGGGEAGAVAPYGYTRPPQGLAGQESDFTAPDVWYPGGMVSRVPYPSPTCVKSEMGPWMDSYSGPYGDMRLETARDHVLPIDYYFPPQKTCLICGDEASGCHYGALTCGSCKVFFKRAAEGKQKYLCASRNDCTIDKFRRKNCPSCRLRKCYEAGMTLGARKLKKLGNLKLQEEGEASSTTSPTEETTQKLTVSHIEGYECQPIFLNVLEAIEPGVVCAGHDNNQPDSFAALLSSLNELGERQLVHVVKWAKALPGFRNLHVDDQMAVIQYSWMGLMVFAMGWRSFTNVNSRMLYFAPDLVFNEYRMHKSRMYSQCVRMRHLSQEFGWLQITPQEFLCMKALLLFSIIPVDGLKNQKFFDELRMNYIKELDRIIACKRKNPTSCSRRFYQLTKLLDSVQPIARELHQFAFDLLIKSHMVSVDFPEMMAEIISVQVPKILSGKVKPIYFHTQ
Briefly: PB-luciferase reporter in LNCaP cells. The class given is cell-based. Particulars: R1881-induced, serum-free, […] h; antagonist, AF-1 directed; covalent.

Another test deals with T2, AR AF-1 (Homo sapiens, UniProt P10275).
T2 construct: recombinant AF-1 region, residues 142-485
T2 sequence (P10275 143-486): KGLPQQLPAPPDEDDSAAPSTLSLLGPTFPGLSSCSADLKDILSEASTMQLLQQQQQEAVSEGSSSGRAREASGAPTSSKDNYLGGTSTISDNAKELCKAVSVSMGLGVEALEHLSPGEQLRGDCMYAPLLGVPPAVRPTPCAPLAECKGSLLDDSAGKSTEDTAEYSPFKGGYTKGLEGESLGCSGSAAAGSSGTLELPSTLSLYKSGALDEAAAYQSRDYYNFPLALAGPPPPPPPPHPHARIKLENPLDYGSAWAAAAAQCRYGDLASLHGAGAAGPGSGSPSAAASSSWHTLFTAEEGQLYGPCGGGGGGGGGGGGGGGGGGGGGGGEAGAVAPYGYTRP
As to the kind of experiment: Click-chemistry fluorescein labelling, SDS-PAGE. The class given is binding. Conditions: covalent; […] protein, […] probe, on ice […] min.

Usually IC50 stands for the concentration that inhibits the measured activity by half. Compound `CCCCCCCCCCCCC(=O)/C=C/CCCOC[C@H](O)CO` [(R)-niphatenone B] displayed an IC50 in test [1] of 6.3 ± 0.5 µM.
The same measure, in the same setting: the figure for `CCCCCCCCCCCCC(=O)/C=C/CCCOC[C@@H](O)CO` [(S)-niphatenone B] is 5.7 ± 0.6 µM.
Regarding `C#CCOCC(O)COCCC/C=C/C(=O)CCCCCCCCCCCC` (stereo not drawn) [compound 44, niphatenone B 44], the “Click-chemistry fluorescein labelling, SDS-PAGE” value at AR AF-1 is “resulted in covalent binding to both AR AF-1 and GR AF-1 peptide”.
